# Measurements from patent US20240228633A9, “METHODS OF TREATING CANCER WITH PDGFR ALPHA INHIBITORS” (Eli Lilly and Company, priority 2021, published 2024).
# Read-outs that look alike come from different tables or passages of the source.
# Experiments:
# soft tissue sarcoma = details: clinical trials for treating soft tissue sarcoma; cited from earlier work
# [1] = system: advanced or metastatic soft tissue sarcoma; details: STS patients; for HR (95% CI), overall survival: Olaratumab + Doxorubicin vs Placebo + Doxorubicin
# Procedure: Study Design: Patients with advanced or metastatic soft tissue sarcoma are treated with olaratumab (20 mg/kg loading dose on Days 1 and 8 of a 21-day cycle in Cycle 1, followed by 15 mg/kg on Days 1 and 8 in subsequent 21-day cycle) in combination with doxorubicin (75 mg/m^2 on Day 1) (“investigational cohort”) and compared to patients treated with placebo (on Days 1 and 8) plus doxorubicin (75 mg/m^2 on Day 1) (“control cohort”). Patients are treated for 8 cycles, followed by olaratumab monotherapy or placebo until evidence of progressive disease, unacceptable toxicity or death. […] Patients are assessed for median overall survival (OS).
# Immunohistochemistry Assay to determine PDGFR/3 expression: For immunohistochemistry analysis, tumor tissue from patients is collected, formalin-fixed in 10% neutral buffered formalin, and paraffin-embedded (FFPE). PDGFRβ protein expression on tumor cells is assessed by immunohistochemistry. Briefly, from FFPE tissue blocks containing the patient tumor tissue, a 4-6 micrometer section is obtained and placed on a positively charged glass slide. Anti-PDGFRβ mouse monoclonal antibody 2B3 is used to detect expression of PDGFRβ (clone 2B3, Cell Signaling Technology® catalog number 3175S), diluted in Dako Primary Antibody Diluent with Background Reducing Components (Dako/Agilent catalog number S3022) at 0.25 μm/mL. Immunohistochemistry is performed on a Dako Autostainer Link 48/PT Link Incubator. Deparaffinization with the Link 48/PT Link Incubator is accomplished at 97° C. for 20 minutes. Target retrieval is next accomplished with immersion of the unstained slides into EnVision™ FLEX Target Retrieval Solution High pH (Dako) on the Dako Link48/PT Link Incubator. Following a rinse in RT EnVision™ FLEX Wash Buffer (1×), specific immunohistochemical staining with the 2B3 antibody is accomplished by FLEX Peroxidase Block for 5 minutes, application of the 0.25 ug/mL concentration of anti-human PDGFRβ antibody 2B3 with incubation for 60 minutes, followed by FLEX/HRP application and incubation for 20 minutes, then application of FLEX DAB+ Substrate Chromogen for 10 minutes, and finally FLEX hematoxylin for 5 minutes. Ready-to-use FLEX Mouse Negative Control (Dako/Agilent catalog number IR750) is performed alongside PDGFRβ staining and used as a quality control (negative control) for the assay. Stained slides are then evaluated by trained personnel using a brightfield microscope.
# LMS = assay: Median overall survival in LMS patients by PDGFRβ tumor status; assay type: in vivo, human; details: for OS HR: LMS female patients; for Hazard Ratio, overall survival / Hazard Ratio (95% CI), overall survival: Olaratumab + Doxorubicin vs Placebo + Doxorubicin; for OS HR adjusted for ECOG PS: adjusting for ECOG PS
# [2] = PDGFRβ negative and PDGFRα positive tumor status
# [3] = LMS patients excluding PDGFRβ positive females
# [4] = LMS patients, PDGFRβ negative tumor status
# [5] = LMS patients, PDGFRβ positive tumor status
substance,measurement,setting,value
LARTRUVO®: an antibody that specifically binds human PDGFRα,therapeutic endpoints in clinical trials,soft tissue sarcoma,failed to meet certain therapeutic endpoints
"doxorubicin [Placebo + Doxorubicin, reference compound]",median OS,[1]; PDGFRα negative tumor status,21.9 months
same,median OS,[1]; PDGFRα positive tumor status,19.1 months
same,median OS,[1]; [2],20.6 months
same,Median OS months,[1]; PDGFRβ negative tumor status,20.57 months
same,Median OS months,[1]; PDGFRβ positive tumor status,19.88 months
same,Median OS months,"[1]; PDGFRβ positive tumor status, listed as control cohort",19.9 months
same,Median OS months,LMS; [3],20.9 months
same,Median OS months,LMS; [4],"21.88 (16.72, 35.55) months"
same,Median OS months,"LMS; LMS patients, PDGFRβ negative tumor status, listed as control cohort",21.88 months
same,Median OS months,LMS; [5],"21.39 (15.57, 24.57) months"
same,Median OS months,"LMS; LMS patients, PDGFRβ positive tumor status, listed as control cohort",21.39 months
"Olaratumab + Doxorubicin: olaratumab (antibody that binds human PDGFRα) in combination with doxorubicin, followed by olaratumab monotherapy",median OS,[1]; PDGFRα negative tumor status,23.6 months
same,median OS,[1]; PDGFRα positive tumor status,17.2 months
same,median OS,[1]; [2],28.5 months
same,Median OS months,[1]; PDGFRβ negative tumor status,28.32 months
same,"HR (95% CI), overall survival",[1]; PDGFRβ negative,0.85 (0.54-1.33)
same,"HR (95% CI), overall survival","[1]; PDGFRβ negative, listed as investigational cohort",0.85
same,Median OS months,[1]; PDGFRβ positive tumor status,18.79 months
same,Median OS months,"[1]; PDGFRβ positive tumor status, listed as investigational cohort",18.8 months
same,"HR (95% CI), overall survival",[1]; PDGFRβ positive,1.10 (0.84-1.44)
same,OS HR,LMS; PDGFRβ negative tumor status,0.55
same,OS HR,LMS; PDGFRβ positive tumor status,1.34
same,Median OS months,LMS; [3],28.5 months
same,"Hazard Ratio, overall survival",LMS; [3],0.60; p = 0.035
same,"Hazard Ratio, overall survival","LMS; LMS patients excluding PDGFRβ positive females, listed as investigational cohort",0.60
same,Median OS months,LMS; [4],29.11 months
same,"Hazard Ratio (95% CI), overall survival","LMS; LMS patients, PDGFRβ negative","0.65 (0.33, 1.25)"
same,"Hazard Ratio (95% CI), overall survival","LMS; LMS patients, PDGFRβ negative, listed as investigational cohort",0.65
same,Median OS months,LMS; [5],20.14 months
same,"Hazard Ratio (95% CI), overall survival","LMS; LMS patients, PDGFRβ positive","1.05 ((0.71, 1.55)"
same,"Hazard Ratio (95% CI), overall survival","LMS; LMS patients, PDGFRβ positive, listed as investigational cohort",1.05
same,OS HR adjusted for ECOG PS,LMS; PDGFRβ negative women with LMS,0.55
same,OS HR adjusted for ECOG PS,LMS; PDGFRβ positive women with LMS,1.34
